Numbered stars: 1 amine (or outer) side, 2 acyl side, 3 side chain; on linkers, the order of the positions; unused ones are H or OH. Side chains are listed from the residue outwards. Peptide text beside a SMILES is read from it. * marks the point of attachment. C18 diacid = O=C(O)CCCCCCCCCCCCCCCCC(=O)*; C16 diacid = O=C(O)CCCCCCCCCCCCCCC(=O)*; γGlu = O=C(O)[C@H](CCC(=O)[*:2])N[*:1]; AEEA = NCCOCCOCC(=O)O
Molecular target: T1, glucagon receptor (Homo sapiens, UniProt P47871)
T1 construct: expressed in transfected cells
T1 sequence (P47871 26-477): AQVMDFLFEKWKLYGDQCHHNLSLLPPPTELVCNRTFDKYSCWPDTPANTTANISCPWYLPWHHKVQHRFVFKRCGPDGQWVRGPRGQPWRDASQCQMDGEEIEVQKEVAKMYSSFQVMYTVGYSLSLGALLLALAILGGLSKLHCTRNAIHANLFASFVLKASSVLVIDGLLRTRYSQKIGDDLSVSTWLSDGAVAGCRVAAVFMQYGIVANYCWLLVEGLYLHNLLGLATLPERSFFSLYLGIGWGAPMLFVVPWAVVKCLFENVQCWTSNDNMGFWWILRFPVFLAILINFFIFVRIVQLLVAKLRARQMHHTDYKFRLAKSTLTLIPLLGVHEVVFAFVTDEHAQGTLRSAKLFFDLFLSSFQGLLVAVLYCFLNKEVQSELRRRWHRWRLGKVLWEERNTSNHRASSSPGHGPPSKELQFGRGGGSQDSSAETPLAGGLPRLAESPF
Assay: Assay (I) Glucagon activity (cAMP biosensor, FLIPR)
Assay type: cell-based

Structure (SMILES) | EC50
CC(C)C[C@H](NC(=O)[C@H](CC(=O)O)NC(=O)[C@H](CC(C)C)NC(=O)[C@H](Cc1ccc(O)cc1)NC(=O)[C@H](CCCNC(=N)N)NC(=O)[C@H](CO)NC(=O)[C@H](Cc1ccc(O)cc1)NC(=O)[C@H](CC(=O)O)NC(=O)[C@H](CO)NC(=O)[C@@H](NC(=O)[C@H](Cc1ccccc1)NC(=O)[C@@H](NC(=O)CNC(=O)[C@H](CCC(N)=O)NC(=O)[C@H](CO)NC(=O)[C@@H](N)Cc1c[nH]cn1)[C@@H](C)O)[C@@H](C)O)C(=O)N[C@@H](CCCNC(=N)N)C(=O)N[C@@H](CCCNC(=N)N)C(=O)N[C@@H](C)C(=O)N[C@@H](CCC(N)=O)C(=O)N[C@@H](CC(=O)O)C(=O)N[C@@H](Cc1ccccc1)C(=O)N[C@H](C(=O)N[C@@H](CCCCNC(=O)COCCOCCNC(=O)COCCOCCNC(=O)CC[C@H](NC(=O)CC[C@H](NC(=O)CC[C@H](NC(=O)CCCCCCCCCCCCCCCCC(=O)O)C(=O)O)C(=O)O)C(=O)O)C(=O)N[C@@H](Cc1c[nH]c2ccccc12)C(=O)N[C@@H](CC(C)C)C(=O)N[C@@H](CC(C)C)C(=O)N[C@@H](CO)C(=O)N[C@H](C(=O)O)[C@@H](C)O)C(C)C [Example 28, N^ε24-[2-[2-[2-[[2-[2-[2-[[(4S)-4-carboxy-4-[[(4S)-4-carboxy-4-[[(4S)-4-carboxy-4-(17-carboxyheptadecanoylamino)butanoyl]amino]butanoyl]amino]butanoyl]amino]ethoxy]ethoxy]acetyl]amino]ethoxy]ethoxy]acetyl]-[Arg^12,Leu^16,Lys^24,Leu^27,Ser^28]-Glucagon] (H-HSQGTFTSDYSRYLDLRRAQDFVK([AEEA-AEEA-γGlu-γGlu-γGlu-C18 diacid])WLLST-OH) | 0.1 nM
CC[C@H](C)[C@H](NC(=O)[C@H](CC(N)=O)NC(=O)[C@H](CC(C)C)NC(=O)[C@H](CC(C)C)NC(=O)[C@H](Cc1c[nH]c2ccccc12)NC(=O)[C@H](CCCCNC(=O)CC[C@H](NC(=O)COCCOCCNC(=O)COCCOCCNC(=O)CC[C@H](NC(=O)CCCCCCCCCCCCCCCCC(=O)O)C(=O)O)C(=O)O)NC(=O)[C@@H](NC(=O)[C@H](Cc1ccccc1)NC(=O)[C@H](CC(=O)O)NC(=O)[C@H](CCC(N)=O)NC(=O)[C@H](C)NC(=O)[C@H](CCCNC(=N)N)NC(=O)[C@H](CCCNC(=N)N)NC(=O)[C@@H](NC(=O)[C@H](CC(=O)O)NC(=O)[C@H](CC(C)C)NC(=O)[C@H](Cc1ccc(O)cc1)NC(=O)[C@H](CCCCN)NC(=O)[C@H](CO)NC(=O)[C@H](Cc1ccc(O)cc1)NC(=O)[C@H](CC(=O)O)NC(=O)[C@H](CO)NC(=O)[C@@H](NC(=O)[C@H](Cc1ccccc1)NC(=O)[C@@H](NC(=O)CNC(=O)[C@H](CCC(N)=O)NC(=O)[C@H](CO)NC(=O)[C@@H](N)Cc1c[nH]cn1)[C@@H](C)O)[C@@H](C)O)[C@@H](C)O)C(C)C)C(=O)O [Example 35, N^ε24-[(4S)-4-carboxy-4-[[2-[2-[2-[[2-[2-[2-[[(4S)-4-carboxy-4-(17-carboxyheptadecanoylamino)butanoyl]amino]ethoxy]ethoxy]acetyl]amino]ethoxy]ethoxy]acetyl]amino]butanoyl]-[Thr16,Lys24,Leu27,Ile29]-Glucagon] | 0.413 nM
CC(C)C[C@H](NC(=O)[C@H](Cc1c[nH]c2ccccc12)NC(=O)[C@H](CCCCNC(=O)CC[C@H](NC(=O)CC[C@H](NC(=O)COCCOCCNC(=O)COCCOCCNC(=O)CC[C@H](NC(=O)CCCCCCCCCCCCCCCCC(=O)O)C(=O)O)C(=O)O)C(=O)O)NC(=O)[C@@H](NC(=O)[C@H](Cc1ccccc1)NC(=O)[C@H](CC(=O)O)NC(=O)[C@H](CCC(N)=O)NC(=O)[C@H](C)NC(=O)[C@H](CCCNC(=N)N)NC(=O)[C@H](CCCNC(=N)N)NC(=O)[C@@H](NC(=O)[C@H](CC(=O)O)NC(=O)[C@H](CC(C)C)NC(=O)[C@H](Cc1ccc(O)cc1)NC(=O)[C@H](CCCCN)NC(=O)[C@H](CO)NC(=O)[C@H](Cc1ccc(O)cc1)NC(=O)[C@H](CC(=O)O)NC(=O)[C@H](CO)NC(=O)[C@@H](NC(=O)[C@H](Cc1ccccc1)NC(=O)[C@@H](NC(=O)CNC(=O)[C@H](CCC(N)=O)NC(=O)[C@H](CO)NC(=O)[C@@H](N)Cc1c[nH]cn1)[C@@H](C)O)[C@@H](C)O)C(C)C)C(C)C)C(=O)N[C@@H](CC(C)C)C(=O)N[C@@H](CC(N)=O)C(=O)N[C@H](C(=O)O)[C@@H](C)O [Example 7, N^ε24-[(4S)-4-carboxy-4-[[(4S)-4-carboxy-4-[[2-[2-[2-[[2-[2-[2-[[(4S)-4-carboxy-4-(17-carboxyheptadecanoylamino)butanoyl]amino]ethoxy]ethoxy]acetyl]amino]ethoxy]ethoxy]acetyl]amino]butanoyl]amino]butanoyl]-[Val^16,Lys^24,Leu^27]-Glucagon] | 0.081 nM
CC(C)C[C@H](NC(=O)[C@H](Cc1ccc(O)cc1)NC(=O)[C@H](CCCNC(=N)N)NC(=O)[C@H](CO)NC(=O)[C@H](Cc1ccc(O)cc1)NC(=O)[C@H](CC(=O)O)NC(=O)[C@H](CO)NC(=O)[C@@H](NC(=O)[C@H](Cc1ccccc1)NC(=O)[C@@H](NC(=O)CNC(=O)[C@H](CCC(N)=O)NC(=O)[C@H](CO)NC(=O)[C@@H](N)Cc1c[nH]cn1)[C@@H](C)O)[C@@H](C)O)C(=O)N[C@@H](CCC(=O)O)C(=O)N[C@@H](CO)C(=O)N[C@@H](CCCNC(=N)N)C(=O)N[C@@H](CCCNC(=N)N)C(=O)N[C@@H](C)C(=O)N[C@@H](CCC(N)=O)C(=O)N[C@@H](CCC(=O)O)C(=O)N[C@@H](Cc1ccccc1)C(=O)N[C@H](C(=O)N[C@@H](CCCCNC(=O)CC[C@H](NC(=O)CC[C@H](NC(=O)COCCOCCNC(=O)COCCOCCNC(=O)CC[C@H](NC(=O)CCCCCCCCCCCCCCC(=O)O)C(=O)O)C(=O)O)C(=O)O)C(=O)N[C@@H](Cc1c[nH]c2ccccc12)C(=O)N[C@@H](CC(C)C)C(=O)N[C@@H](CC(C)C)C(=O)N[C@@H](CO)C(=O)N[C@H](C(=O)O)[C@@H](C)O)C(C)C [Example 71, N^ε24-[(4S)-4-carboxy-4-[[(4S)-4-carboxy-4-[[2-[2-[2-[[2-[2-[2-[[(4S)-4-carboxy-4-(15-carboxypentadecanoylamino)butanoyl]amino]ethoxy]ethoxy]acetyl]amino]ethoxy]ethoxy]acetyl]amino]butanoyl]amino]butanoyl]-[Arg12,Glu15,Glu21,Lys24,Leu27,Ser28]-Glucagon] (H-HSQGTFTSDYSRYLESRRAQEFVK([γGlu-γGlu-AEEA-AEEA-γGlu-C16 diacid])WLLST-OH) | 0.072 nM
CC(C)C[C@H](NC(=O)[C@H](Cc1ccc(O)cc1)NC(=O)[C@H](CCCCN)NC(=O)[C@H](CO)NC(=O)[C@H](Cc1ccc(O)cc1)NC(=O)[C@H](CC(=O)O)NC(=O)[C@H](CO)NC(=O)[C@@H](NC(=O)[C@H](Cc1ccccc1)NC(=O)[C@@H](NC(=O)CNC(=O)[C@H](CCC(N)=O)NC(=O)[C@H](CO)NC(=O)[C@@H](N)Cc1c[nH]cn1)[C@@H](C)O)[C@@H](C)O)C(=O)N[C@@H](CCC(=O)O)C(=O)N[C@@H](CO)C(=O)N[C@@H](CCCNC(=N)N)C(=O)N[C@@H](CCCNC(=N)N)C(=O)N[C@@H](C)C(=O)N[C@@H](CCC(N)=O)C(=O)N[C@@H](CC(=O)O)C(=O)N[C@@H](Cc1ccccc1)C(=O)N[C@H](C(=O)N[C@@H](CCCCNC(=O)CC[C@H](NC(=O)CC[C@H](NC(=O)COCCOCCNC(=O)COCCOCCNC(=O)CC[C@H](NC(=O)CCCCCCCCCCCCCCCCC(=O)O)C(=O)O)C(=O)O)C(=O)O)C(=O)N[C@@H](Cc1c[nH]c2ccccc12)C(=O)N[C@@H](CC(C)C)C(=O)N[C@@H](CCC(=O)O)C(=O)N[C@@H](CO)C(=O)N[C@H](C(=O)O)[C@@H](C)O)C(C)C [Example 59, N^ε24-[(4S)-4-carboxy-4-[[(4S)-4-carboxy-4-[[2-[2-[2-[[2-[2-[2-[[(4S)-4-carboxy-4-(17-carboxyheptadecanoylamino)butanoyl]amino]ethoxy]ethoxy]acetyl]amino]ethoxy]ethoxy]acetyl]amino]butanoyl]amino]butanoyl]-[Glu15,Lys24,Glu27,Ser28]-Glucagon] | 0.682 nM
CC(C)C[C@H](NC(=O)[C@H](Cc1ccc(O)cc1)NC(=O)[C@H](CCCNC(=N)N)NC(=O)[C@H](CO)NC(=O)[C@@H](NC(=O)[C@H](CC(=O)O)NC(=O)[C@H](CO)NC(=O)[C@@H](NC(=O)[C@H](Cc1ccccc1)NC(=O)[C@@H](NC(=O)CNC(=O)[C@H](CCC(N)=O)NC(=O)[C@H](CO)NC(=O)[C@@H](N)Cc1c[nH]cn1)[C@@H](C)O)[C@@H](C)O)C(C)C)C(=O)N[C@@H](CCC(=O)O)C(=O)N[C@@H](CO)C(=O)N[C@@H](CCCNC(=N)N)C(=O)N[C@@H](CCCNC(=N)N)C(=O)N[C@@H](C)C(=O)N[C@@H](CCC(N)=O)C(=O)N[C@@H](CCC(=O)O)C(=O)N[C@@H](Cc1ccccc1)C(=O)N[C@H](C(=O)N[C@@H](CCCCNC(=O)CC[C@H](NC(=O)CC[C@H](NC(=O)COCCOCCNC(=O)COCCOCCNC(=O)CC[C@H](NC(=O)CCCCCCCCCCCCCCCCC(=O)O)C(=O)O)C(=O)O)C(=O)O)C(=O)N[C@@H](Cc1c[nH]c2ccccc12)C(=O)N[C@@H](CC(C)C)C(=O)N[C@@H](CCC(=O)O)C(=O)N[C@@H](CO)C(=O)N[C@H](C(=O)O)[C@@H](C)O)C(C)C [Example 54, N^ε24-[(4S)-4-carboxy-4-[[(4S)-4-carboxy-4-[[2-[2-[2-[[2-[2-[2-[[(4S)-4-carboxy-4-(17-carboxyheptadecanoylamino)butanoyl]amino]ethoxy]ethoxy]acetyl]amino]ethoxy]ethoxy]acetyl]amino]butanoyl]amino]butanoyl]-[Val10,Arg12,Glu15,Glu21,Lys24,Glu27,Ser28]-Glucagon] (H-HSQGTFTSDVSRYLESRRAQEFVK([γGlu-γGlu-AEEA-AEEA-γGlu-C18 diacid])WLEST-OH) | 1.63 nM
